{
  "source": "paper PMC5691054",
  "about": "“An unexpected protein interaction promotes drug resistance in leukemia” (Nature Communications, 2017)",
  "key": {"Meg01 cells": {"system": "Meg01 cells", "experiment": "6MP cytotoxicity in Meg01 cells", "format": "cell-based, Human", "conditions": "Antimycin A 10 nM, in words", "protocol": "HEK293 cells transfected with ABCC4 or ABCC4ΔC in the presence or absence of MPP1, MO7e, and Meg01 cells were treated with 10 concentrations of 6MP, ranging from 1 to 1000 µM, for 96 h. Cell viability analysis was determined using CellTiter Glo (Promega). Where applicable, cell penetrating peptides conjugated to the PDZ-binding motif of ABCC4 (labeled either ABCC4-PDZ or ABCC4ΔC) were added to the cells at 20 μM. Media was changed daily and new ABCC4-PDZ/ABCC4ΔC peptide and 6MP was added. IC50 values were calculated using GraphPad Prism.\nThe Meg01, MO7e, and ABCC4 KO MO7e cell lines were plated at 1500 cells per well in a 96-well plate. Cells were treated with 10 concentrations of Antimycin A (Santa Cruz) ranging from 0.01 to 1000 μM. Cell viability was determined using CellTiter Glo (Promega). Meg01, MO7e, and ABCC4 KO MO7e cells in the presence or absence of 10 nM Antimycin A were treated with 10 concentrations of 6MP, ranging from 1 to 1000 µM, for 96 h. Cell viability analysis was determined using CellTiter Glo. IC50 values were calculated using GraphPad Prism."}, "[1]": {"system": "primary AML cells from adult patients", "experiment": "Annexin V/PI apoptosis in primary AML patient samples", "format": "cell-based, Human", "conditions": "50 or 100 µM cytarabine + 10 nM Antimycin A 4 h, then 44 h ± Antimycin A; triplicates; in words", "protocol": "Primary AML cells from adult patients were treated with either vehicle, 50 or 100 µM cytarabine, 10 nM Antimycin A, or the combination of 50 or 100 µM cytarabine + 10 nM Antimycin A for 4 h. Post treatment, the cells were washed with fresh media (2×) and resuspended in the absence or presence of 10 nM Antimycin A and cultured for an additional 44 h (for a total treatment time of 48 h). The cells were then stained with Annexin V-fluorescein isothiocyanate (FITC)/propidium iodide (PI) apoptosis Kit (Beckman Coulter; Brea, CA, USA). The stage of apoptotic cells (Annexin V-positive, but early or late apoptosis) is identified by the proportion of AnnexinV+/PI− (early apoptosis) and Annexin V+/PI+ (late apoptosis) cells. This experiment was performed once in triplicates (presented as average ± SEM) due to the limited sample availability. Patient samples were selected based on the availability of an adequate number of cells to perform the assay."}, "[2]": {"system": "ABCC4 at the plasma membrane", "experiment": "Surface biotinylation of ABCC4", "format": "cell-based", "conditions": "Antimycin A, Fig. 6f, in words", "protocol": "MO7e, Meg01, or transfected HEK293 cells were treated with trypsin, washed in PBS (pH 8) and incubated with 0.8 mM EZ-Link Sulfo-NHS-SS-Biotin (Pierce) solution for 30 min at room temperature with gentle agitation. Following incubation, the biotin molecules were quenched with 25 mM tris (pH 8) solution containing 0.1 M glycine before cell lysis using MPER (Thermo Scientific) containing a protease inhibitor cocktail (Roche). A volume of 20 µl of the lysate was removed for the total lysate control and the remaining lysate was incubated with avidin-agarose beads (Pierce) for 18 h on a rotatory shaker at 4 °C. The agarose beads attached to cell surface proteins were then separated from the lysate containing cytosolic proteins by centrifugation and the three samples (input, supernatant and pellet) were analyzed by immunoblotting."}, "[3]": {"system": "mitochondrial function of MO7e and ABCC4 KO MO7e cells", "experiment": "Mitochondrial function (relative ATP, TMRE, MitoTracker Green)", "format": "cell-based, Human", "conditions": "10 nM", "protocol": "WT and ABCC4 KO MO7e cells were treated with DMSO or 10 nM Antimycin A before incubation with TMRE or MitoTracker Green (Life Technologies) for 15 min. After incubation, cells were analyzed with BD Biosciences flow cytometer and mean fluorescence intensity was calculated. Relative ATP amounts were determined by the CellTiter Glo Assay."}, "[4]": {"target": "T1, ABCC4-PDZ motif and MPP1 interaction (Homo sapiens, UniProt O15439+Q00013)", "T1 sequence (Q00013 1-466)": "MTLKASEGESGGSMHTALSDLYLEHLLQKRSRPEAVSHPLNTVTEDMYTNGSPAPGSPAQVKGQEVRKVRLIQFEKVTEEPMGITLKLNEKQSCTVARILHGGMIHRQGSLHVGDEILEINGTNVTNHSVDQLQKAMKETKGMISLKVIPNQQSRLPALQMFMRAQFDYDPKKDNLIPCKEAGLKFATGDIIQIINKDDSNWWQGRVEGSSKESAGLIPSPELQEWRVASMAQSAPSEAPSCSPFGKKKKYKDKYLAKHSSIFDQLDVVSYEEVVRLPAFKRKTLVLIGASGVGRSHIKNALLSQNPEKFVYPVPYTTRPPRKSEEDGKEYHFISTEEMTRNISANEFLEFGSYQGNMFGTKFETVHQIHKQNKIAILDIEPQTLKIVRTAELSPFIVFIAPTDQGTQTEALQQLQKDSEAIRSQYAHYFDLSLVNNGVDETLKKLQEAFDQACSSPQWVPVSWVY", "T1 sequence (O15439 1301-1325)": "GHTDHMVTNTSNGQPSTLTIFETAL", "experiment": "biochemical", "conditions": "for IC50: 10 concentrations 3.5 nM to 70 μM"}, "[5]": {"system": "mitochondrial complex III", "set-up": "method as in PMID 6257713", "conditions": "in words; cited from earlier work", "experimental": "Among the 11,297 chemicals tested, 219 of them (144 unique molecules) had >30% inhibition and were selected for further dose-response analysis using 10 concentrations ranging from 3.5 nM to 70 μM."}, "[6]": {"system": "murine hematopoietic progenitor cells (HPC)", "experiment": "Hematopoietic progenitor cell serial replating in methylcellulose", "experimental": "In these experiments, littermates were used as controls. Bone marrow from 8- to 12-week-old female virgin C57/BL6 mice were harvested. Progenitors were enriched by incubating with lineage-PE antibodies (CD4, CD8, Mac1, Gr1, NK1.1, B220, and Ter119) and separated using AutoMACS Pro (Miltenyi). Hematopoetic progenitor cells were cultured in the presence of recombinant murine SCF (rmSCF), IL3 (rmIL3), and IL6 (rmIL6) (Peprotech; all 50 ng/ml) for 48 h before transduction on RetroNectin (Takara) coated plates. Retroviral supernatant containing media was produced by transient transfection of HEK293T cells with MSCV based retroviral plasmids encoding either MYCN-ires-YFP or MPP1-ires-CFP as previously described[35]. Forty-eight hours post transduction, cells were harvested, sorted for either YFP or CFP expression, and plated on methylcellulose containing IL3, IL6, SCF, and EPO (Stem Cell Technologies). Colonies were counted after 7 days growth at 37 °C, harvested, and replated."}, "MO7e cells": {"system": "MO7e cells", "experiment": "Antimycin A cytotoxicity in MO7e and ABCC4 KO MO7e cells", "format": "cell-based, Human", "conditions": "MO7e; 6MP 10 μM (sublethal), in words", "protocol": "(§1) The Meg01, MO7e, and ABCC4 KO MO7e cell lines were plated at 1500 cells per well in a 96-well plate. Cells were treated with 10 concentrations of Antimycin A (Santa Cruz) ranging from 0.01 to 1000 μM. Cell viability was determined using CellTiter Glo (Promega). […] Cell viability analysis was determined using CellTiter Glo. IC50 values were calculated using GraphPad Prism."}, "[7]": {"experiment": "Antimycin A cytotoxicity in MO7e and ABCC4 KO MO7e cells", "format": "cell-based, Human", "conditions": "human, 0.01 to 1000 μM, CellTiter Glo, triplicate", "protocol": "as §1"}},
  "note": "Entries after “also recorded” stand apart in the source; their conditions may differ. Read-outs that look alike come from different tables or passages of the source.",
  "data": [
    {"compound": "CCCCCC[C@H]1C(=O)O[C@H](C)[C@H](NC(=O)c2cccc(NC=O)c2O)C(=O)O[C@@H](C)[C@@H]1OC(=O)CC(C)C", "note": "[Antimycin A]", "values": [
      {"measurement": "effect of Antimycin A on 6MP sensitivity", "setting": "Meg01 cells", "result": "sensitized to 6MP by Antimycin A (10 nM)"},
      {"measurement": "Antimycin A enhancement of cytarabine-induced apoptosis in primary AML samples", "setting": "[1]", "result": "Three of the 5 patients; also recorded: enhanced cytarabine cytoxicity in three primary AML patient samples; also recorded: did not show enhancement on cytarabine-induced apoptosis; also recorded: increased Annexin V^+ percentage of cells with combination treatment of Antimycin A and cytarabine vs cytarabine alone"},
      {"measurement": "surface / plasma membrane ABCC4", "setting": "[2]", "result": "reduces ABCC4 at the plasma membrane"},
      {"measurement": "relative ATP", "setting": "[3]; CellTiter Glo, triplicate", "result": "Equal relative"},
      {"measurement": "effect on mitochondrial function", "setting": "[3]; in words", "result": "does not selectively affect the mitochondrial; also recorded: minimal effect on mitochondria; also recorded: not exclusively disruptive to mitochondrial function in cells lacking or containing ABCC4"},
      {"measurement": "IC50", "setting": "[4]; 500 nM B-ABCC4, 5 nM His-S-MPP1, 0.7% DMSO, read-out: IC50 for complex disruption (TR-FRET)", "result": "~0.003", "unit": "µM"},
      {"measurement": "IC50", "setting": "[4]; figure value, 500 nM B-ABCC4, 5 nM His-S-MPP1, triplicate, read-out: IC50 for disruption of MPP1 and ABCC4 interaction (TR-FRET)", "result": 0.0039, "unit": "µM"},
      {"measurement": "TR-FRET dose response / disruption of interaction", "setting": "[4]; in words", "result": "the most potent"},
      {"measurement": "mitochondrial complex III inhibition", "setting": "[5]", "result": "mitochondrial complex III inhibitor at micromolar concentration"},
      {"measurement": "effect on MPP1-driven methylcellulose replating", "setting": "[6]; HPC transduced with MPP1, Antimycin A 10 nM, triplicate", "result": "blocked replating of MPP1 overexpressing HSC; also recorded: attenuated"},
      {"measurement": "effect on colony formation of normal hematopoietic progenitors", "setting": "[6]; normal hematopoietic progenitors, Antimycin A 10 nM (peer review file)", "result": "did not effect; also recorded: does not reduce the"},
      {"measurement": "Antimycin A cytotoxicity in combination with non-cytotoxic 6MP", "setting": "MO7e cells", "result": "sensitizes MO7e cells to Antimycin A; also recorded: shifted the Antimycin A survival curve to the left indicating greater toxicity when an ABCC4 substrate was present"},
      {"measurement": "IC50", "setting": "[7]; MO7e ABCC4 KO cells, MO7e ABCC4 KO", "result": 1.7, "unit": "µM"},
      {"measurement": "IC50", "setting": "[7]; MO7e cells, MO7e", "result": 2.2, "unit": "µM"}
    ]}
  ]
}
